≈ marks a conversion by molar mass, not a printed value. Calls of active or inactive are those of the source. No cut-off for these calls is given here.
Tests used:
[1] = Kinetic solubility of compound at pH 7.4; conditions: buffer
[2] = Thermodynamic solubility in fasted simulated intestinal fluid; format: physicochemical; conditions: read-out: Therm_solubility
[3] = Thermodynamic solubility in simulated gastric fluid; format: physicochemical; conditions: read-out: Therm_solubility
[4] = Plasma protein binding in human assessed as unbound fraction
[5] = Plasma protein binding in mouse assessed as unbound fraction
[6] = tested on: Blood; experiment: Inhibition of IL-12- induced IFN-gamma production in human whole blood; format: functional, tissue-based
[7] = tested on: Blood; experiment: Inhibition of IL-12- induced IFN-gamma production in mouse whole blood; format: functional, tissue-based
[8] = target: Phosphodiesterase 4 (Homo sapiens) (UniProt P27815+Q08499+Q07343+Q08493); experiment: Inhibition of human PDE4 at 10 uM measured by radioligand binding assay relative to control; format: protein assay
[9] = target: Protein kinase C (PKC) (Rattus norvegicus) (UniProt P05696+P68403+P09216+P63319+P09215+Q64617+Q9WTQ0+P09217); experiment: Inhibition of rat PKC at 10 uM measured by radioligand binding assay relative to control; format: protein assay
[10] = target: Tyrosine-protein kinase Lck (Homo sapiens) (UniProt P06239); experiment: Inhibition of human LCK at 10 uM measured by radioligand binding assay relative to control
[11] = target: T1, Alpha-2B adrenergic receptor (Homo sapiens) (UniProt P18089); experiment: Inhibition of human adrenergic alpha2B at 10 uM measured by radioligand binding assay relative to control
T1 sequence (whole entry): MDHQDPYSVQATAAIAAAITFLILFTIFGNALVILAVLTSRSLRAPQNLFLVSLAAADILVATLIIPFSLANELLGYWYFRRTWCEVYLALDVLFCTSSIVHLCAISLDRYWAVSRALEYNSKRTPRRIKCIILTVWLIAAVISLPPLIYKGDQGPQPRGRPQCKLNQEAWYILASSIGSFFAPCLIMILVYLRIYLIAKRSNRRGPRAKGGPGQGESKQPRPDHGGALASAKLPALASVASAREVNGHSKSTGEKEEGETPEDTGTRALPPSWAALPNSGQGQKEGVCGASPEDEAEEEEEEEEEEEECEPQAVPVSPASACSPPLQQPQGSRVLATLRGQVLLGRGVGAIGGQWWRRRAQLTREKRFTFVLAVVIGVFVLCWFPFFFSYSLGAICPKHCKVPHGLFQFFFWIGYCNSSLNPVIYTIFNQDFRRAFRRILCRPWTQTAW

[12] = target: T2, Peroxisome proliferator-activated receptor gamma (Homo sapiens) (UniProt P37231); experiment: Inhibition of human PPARgamma at 10 uM measured by radioligand binding assay relative to control
T2 sequence (whole entry): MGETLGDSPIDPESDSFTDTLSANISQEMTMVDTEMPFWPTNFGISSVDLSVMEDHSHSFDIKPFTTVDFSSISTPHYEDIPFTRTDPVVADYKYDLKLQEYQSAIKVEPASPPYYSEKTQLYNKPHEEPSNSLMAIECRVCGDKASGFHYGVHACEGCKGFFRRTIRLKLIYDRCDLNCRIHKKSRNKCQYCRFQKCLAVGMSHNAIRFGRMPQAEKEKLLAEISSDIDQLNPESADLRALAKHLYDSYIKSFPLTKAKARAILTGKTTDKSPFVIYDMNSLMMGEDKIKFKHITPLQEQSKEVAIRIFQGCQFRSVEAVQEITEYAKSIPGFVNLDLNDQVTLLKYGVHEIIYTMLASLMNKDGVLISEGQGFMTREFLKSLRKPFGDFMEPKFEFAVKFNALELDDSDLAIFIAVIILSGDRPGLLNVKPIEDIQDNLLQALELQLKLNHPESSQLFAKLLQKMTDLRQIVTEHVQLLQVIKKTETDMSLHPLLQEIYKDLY

[13] = Plasma protein binding in rat
[14] = Plasma protein binding in dog
[15] = Plasma protein binding in rat assessed as unbound fraction
[16] = Plasma protein binding in dog assessed as unbound fraction
[17] = Clearance in mouse at 3 mg/kg, iv; format: ADME, organism-based; conditions: in vivo
[18] = Clearance in rat at 3 mg/kg, iv; format: ADME, organism-based; conditions: in vivo
[19] = Clearance in dog at 3 mg/kg, iv; format: ADME, organism-based, Canis lupus familiaris; conditions: in vivo
[20] = Half-life in mouse at 3 mg/kg, iv; format: ADME, organism-based; conditions: in vivo
[21] = Half-life in rat at 3 mg/kg, iv; format: ADME, organism-based; conditions: in vivo
[22] = Half-life in dog at 3 mg/kg, iv; format: ADME, organism-based, Canis lupus familiaris; conditions: in vivo
[23] = Volume of distribution in mouse at 3 mg/kg, iv; format: ADME, organism-based; conditions: in vivo
[24] = Volume of distribution in rat at 3 mg/kg, iv; format: ADME, organism-based; conditions: in vivo
[25] = Volume of distribution in dog at 3 mg/kg, iv; format: ADME, organism-based, Canis lupus familiaris; conditions: in vivo
[26] = Oral bioavailability in mouse at 10 mg/kg; format: ADME, organism-based; conditions: in vivo
[27] = Oral bioavailability in rat at 10 mg/kg; format: ADME, organism-based; conditions: in vivo
[28] = Oral bioavailability in dog at 10 mg/kg; format: ADME, organism-based, Canis lupus familiaris; conditions: in vivo
[29] = tested on: Mus musculus; experiment: Anti-inflammatory activity in IL-23-induced ear inflammation model of mouse assessed as inhibition of ear swelling at 100 mg/kg/day; format: functional
[30] = tested on: Mus musculus; experiment: Anti-inflammatory activity in IL-23-induced ear inflammation model of mouse assessed as inhibition of IL-17A levels at 100 mg/kg/day; format: functional
[31] = tested on: Mus musculus; experiment: Anti-inflammatory activity in imiquimod-induced mouse psoriasis model assessed as reduction in psoriasis score at 10 to 100 mg/kg/day; format: functional, organism-based; conditions: dose 10-100 mg/kg/day
[32] = tested on: Spleen; experiment: Anti-inflammatory activity in imiquimod-induced mouse psoriasis model assessed as reduction in spleen weight at 10 to 100 mg/kg/day; format: functional, organism-based; conditions: dose 10-100 mg/kg/day
[33] = tested on: Spleen; experiment: Anti-inflammatory activity in imiquimod-induced mouse psoriasis model assessed as reduction in inflammation in spleen at 10 to 100 mg/kg/day; format: functional, organism-based; conditions: dose 10-100 mg/kg/day

Sequence of Tyrosine-protein kinase Lck (Homo sapiens) (P06239 2-509 limits assumed): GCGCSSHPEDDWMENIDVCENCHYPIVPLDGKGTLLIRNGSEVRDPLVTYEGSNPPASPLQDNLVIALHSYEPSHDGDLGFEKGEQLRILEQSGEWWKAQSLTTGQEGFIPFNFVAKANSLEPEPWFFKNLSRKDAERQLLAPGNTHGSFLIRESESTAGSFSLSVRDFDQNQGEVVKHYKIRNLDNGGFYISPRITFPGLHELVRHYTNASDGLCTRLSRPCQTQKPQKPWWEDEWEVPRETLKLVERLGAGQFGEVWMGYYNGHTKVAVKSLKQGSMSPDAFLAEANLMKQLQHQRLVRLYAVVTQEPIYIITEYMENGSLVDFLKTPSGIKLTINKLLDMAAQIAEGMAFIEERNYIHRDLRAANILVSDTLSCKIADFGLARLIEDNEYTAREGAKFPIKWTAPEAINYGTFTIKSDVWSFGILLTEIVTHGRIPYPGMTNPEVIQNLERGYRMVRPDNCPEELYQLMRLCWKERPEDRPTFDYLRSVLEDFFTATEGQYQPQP

solubility kinetic [1]: 270 µM (≈ 117 µg/mL)
solubility thermodynamic [2]: 240 µM (≈ 104 µg/mL)
solubility thermodynamic [3]: 2300 µM (≈ 999 µg/mL)
fraction unbound [4]: 0.099
fraction unbound [5]: 0.061
IC50 ([6]; Homo sapiens, Blood): 1.8 µM
IC50 ([7]; Mus musculus, Blood): 5.9 µM
inhibition [8]: 59%
inhibition [9]: 66%
inhibition [10]: 61%
inhibition [11]: 56%
inhibition [12]: 68%
fraction unbound [13]: 0.13
fraction unbound [14]: 0.13
fraction unbound [15]: 0.1
fraction unbound [16]: 0.13
clearance [17]: 28 mL/min/kg
clearance [18]: 27 mL/min/kg
clearance [19]: 5.2 mL/min/kg
half-life [20]: 1.8 h
half-life [21]: 1.6 h
half-life [22]: 6.5 h
Vd [23]: 1.2 L/kg
Vd [24]: 1.9 L/kg
Vd [25]: 2.5 L/kg
bioavailability [26]: > 90%
bioavailability [27]: 32%
bioavailability [28]: 63%
SMILES: O=C1NCc2nc(-c3c(F)cccc3F)cc(Nc3ccc(C(=O)N4CCCC4)cc3)c21
fIC50 [6]: 0.18 µM
fIC50 [7]: 0.36 µM
inhibition in vivo at 100 mg/kg/day [29]: 74%
inhibition in vivo at 100 mg/kg/day [30]: 96%
Activity [31]: Active
Activity [32]: Active
Activity [33]: Active
